The results in this text go back to PubChem BioAssay (NCI).

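Test compounds were applied to cells in 96-well plates for 48 hours at 5 doses. GI50 is the concentration that inhibits growth by half. Definition used: TGI = concentration required for complete inhibition of growth.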

Test systems include NCI-H460 lung; HOP-92 NSCLC; HCT-116 colon; MOLT-4 leukemia; U251 CNS; KM12 colon; SNB-19 CNS; TK-10 renal; PC-3 prostate; SK-MEL-28 melanoma.
Assay in all cases: NCI anticancer screen, dose series, 48 h

With `C[C@H]1[C@H](C)CC[C@]2(C(=O)OC3OC(CO)C(O)C(O)C3O)CC[C@]3(C)C(=CC[C@@H]4[C@@]5(C)C[C@@H](O)[C@@H]6OC(=O)c7cc(O)c(O)c(O)c7-c7c(cc(O)c(O)c7O)C(=O)OC[C@@]6(CO)[C@@H]5CC[C@]43C)[C@H]12` (some centres not stated), the TGI in the experiment with NCI-H460 lung, in the experiment with HOP-92 NSCLC, in the experiment with HCT-116 colon, in the experiment on MOLT-4 leukemia, in the experiment on U251 CNS and in the experiment with KM12 colon was above 100 µM each time. Further, the TGI with SNB-19 CNS, in the experiment on TK-10 renal, with PC-3 prostate and in the experiment with SK-MEL-28 melanoma was above 100 µM each time.
`CS(=O)(=O)Nc1ccc2ccccc2c1`: the TGI in the experiment on NCI-H460 lung, in the experiment with HOP-92 NSCLC, with HCT-116 colon, in the experiment with MOLT-4 leukemia, in the experiment with U251 CNS and with KM12 colon was above 100 µM throughout. Besides, the TGI with SNB-19 CNS, in the experiment with TK-10 renal, with PC-3 prostate and in the experiment on SK-MEL-28 melanoma was above 100 µM throughout.
Turning to `CSc1nc(Cl)c2c(n1)Sc1nc3ccccc3n1C2O` (configuration not stated), the TGI in the experiment with NCI-H460 lung was above 74.6 µM; in the experiment with HOP-92 NSCLC it was 26.6 µM; in the experiment with HCT-116 colon, above 33.1 µM; in the experiment on MOLT-4 leukemia it was above 100 µM; in the experiment with U251 CNS, 15.2 µM; with KM12 colon, above 21.2 µM. Moreover, the TGI was 97.1 µM in the experiment on SNB-19 CNS, above 100 µM in the experiment with TK-10 renal, above 100 µM in the experiment with PC-3 prostate and above 100 µM in the experiment on SK-MEL-28 melanoma.
Consider `c1ccc2c(c1)cc1ccc3cccc4ccc2c1c34`, for which the TGI in the experiment on NCI-H460 lung, with HOP-92 NSCLC, in the experiment on HCT-116 colon, in the experiment on MOLT-4 leukemia, with U251 CNS and in the experiment with KM12 colon was above 100 µM each time. Also, the TGI in the experiment on SNB-19 CNS, with TK-10 renal, in the experiment with PC-3 prostate and with SK-MEL-28 melanoma was above 100 µM throughout.
On to `Cc1cccc2c1CC(Cc1ccccc1C(=O)O)C2=O` (configuration not stated), for which the TGI in the experiment on NCI-H460 lung, with HOP-92 NSCLC, in the experiment on HCT-116 colon, in the experiment on MOLT-4 leukemia, with U251 CNS and with KM12 colon was above 100 µM in each case. The TGI in the experiment on SNB-19 CNS, in the experiment on TK-10 renal, with PC-3 prostate and in the experiment with SK-MEL-28 melanoma was above 100 µM each time.
On to `C=CN(C=C)C(=O)Cn1cc(-c2ccccc2)nn1`, for which the TGI with NCI-H460 lung, with HOP-92 NSCLC, in the experiment on HCT-116 colon, in the experiment on MOLT-4 leukemia, in the experiment on U251 CNS and in the experiment on KM12 colon was above 100 µM in each case. The TGI with SNB-19 CNS, in the experiment with TK-10 renal, in the experiment on PC-3 prostate and in the experiment with SK-MEL-28 melanoma was above 100 µM in each case.
For `CC(=O)Oc1ccn2nc(C)c(Br)c2c1`, the TGI with NCI-H460 lung, with HOP-92 NSCLC, in the experiment on HCT-116 colon, in the experiment on MOLT-4 leukemia, with U251 CNS and in the experiment on KM12 colon was above 100 µM throughout. In addition, the TGI with SNB-19 CNS is above 100 µM; with TK-10 renal, above 100 µM; in the experiment on PC-3 prostate, above 86.5 µM; with SK-MEL-28 melanoma, above 100 µM.
In the case of `COC1(CC[C@H](C)COC2OC(CO)C(O)C(O)C2O)O[C@H]2C[C@H]3[C@@H]4CC=C5C[C@@H](OC6OC(CO)C(OC7OC(C)C(O)C(O)C7O)C(O)C6OC6OC(C)C(O)C(O)C6O)CC[C@]5(C)[C@H]4CC[C@]3(C)[C@H]2[C@@H]1C` (some centres not stated), the figures for the GI50 in the experiment with NCI-H460 lung and in the experiment with HCT-116 colon were 4.39 µM and 2.92 µM, respectively. The TGI in the experiment on NCI-H460 lung was 15.1 µM; with HOP-92 NSCLC, 6.2 µM; in the experiment with HCT-116 colon, 8.34 µM; with MOLT-4 leukemia, above 100 µM; in the experiment on U251 CNS, 7.36 µM; with KM12 colon it was 6.65 µM. Also, the TGI is 12.4 µM in the experiment on SNB-19 CNS, above 100 µM in the experiment with TK-10 renal, 11.9 µM with PC-3 prostate and 15.8 µM with SK-MEL-28 melanoma.
For the compound `CC1(C)OCC(C2OC(C)(C)OC2[C@H]2O[C@@]3(O)[C@H]4[C@H](C=CC[C@@H]42)[C@@H](OCc2ccccc2)[C@H](OCc2ccccc2)[C@H]3OCc2ccccc2)O1` (some centres not stated), the TGI in the experiment on NCI-H460 lung is above 100 µM; in the experiment with HOP-92 NSCLC, above 100 µM; in the experiment on HCT-116 colon, above 100 µM; in the experiment on MOLT-4 leukemia it was 44.3 µM; in the experiment on U251 CNS, above 100 µM; in the experiment on KM12 colon, above 100 µM. The TGI in the experiment on SNB-19 CNS, with TK-10 renal, with PC-3 prostate and in the experiment on SK-MEL-28 melanoma was above 100 µM in each case.
`CCC1([N+](=O)[O-])CN(N=O)C1`: the TGI in the experiment on NCI-H460 lung, in the experiment on HOP-92 NSCLC, in the experiment with HCT-116 colon, with MOLT-4 leukemia, with U251 CNS and in the experiment with KM12 colon was above 100 µM throughout. Further, the TGI with SNB-19 CNS, in the experiment on TK-10 renal, in the experiment with PC-3 prostate and in the experiment on SK-MEL-28 melanoma was above 100 µM throughout.
With `Clc1ccc(/C(=C/c2ccccc2)Cn2ccnc2)cc1`, the TGI was above 100 µM with NCI-H460 lung; 67.2 µM with HOP-92 NSCLC; above 100 µM in the experiment with HCT-116 colon; above 100 µM in the experiment on MOLT-4 leukemia; above 100 µM in the experiment with U251 CNS; above 100 µM in the experiment with KM12 colon. In addition, the TGI in the experiment on SNB-19 CNS was above 100 µM; in the experiment with TK-10 renal, above 100 µM; with PC-3 prostate, 94 µM; with SK-MEL-28 melanoma, above 100 µM.
Consider `CCOC(=O)[C@@H](Cc1ccc(CCl)cc1)NC(C)=O`, for which the TGI with NCI-H460 lung is 43.2 µM; with HOP-92 NSCLC, 43.6 µM; in the experiment with HCT-116 colon it was above 100 µM; in the experiment on MOLT-4 leukemia, above 100 µM; in the experiment with U251 CNS, 40.5 µM; in the experiment on KM12 colon, 40.5 µM. Moreover, the TGI with SNB-19 CNS was 79.2 µM; in the experiment on TK-10 renal it was 23.4 µM; in the experiment with PC-3 prostate, above 100 µM; with SK-MEL-28 melanoma it was 86.2 µM.
Take `COc1cc2c(cc1OCc1ccccc1)NC(=O)[C@@H]1CCCN1C2=O`: the TGI with NCI-H460 lung, in the experiment with HOP-92 NSCLC, with HCT-116 colon, with MOLT-4 leukemia, in the experiment on U251 CNS and in the experiment on KM12 colon was above 100 µM throughout. The TGI in the experiment with SNB-19 CNS, with TK-10 renal, with PC-3 prostate and with SK-MEL-28 melanoma was above 100 µM each time.
As to `CCOC(=O)/C=C/CCC(C)(C)COC(C)=O`, the TGI in the experiment on NCI-H460 lung, in the experiment with HOP-92 NSCLC, with HCT-116 colon, in the experiment on MOLT-4 leukemia, in the experiment on U251 CNS and with KM12 colon was above 10 µM in each case. The TGI in the experiment with SNB-19 CNS, in the experiment on TK-10 renal, in the experiment with PC-3 prostate and in the experiment on SK-MEL-28 melanoma was above 10 µM throughout.
Take `O=c1c2cc([N+](=O)[O-])ccc2oc2nc3n(c(=O)c12)CCCS3`: the TGI in the experiment with NCI-H460 lung, in the experiment on HOP-92 NSCLC, with HCT-116 colon, with MOLT-4 leukemia, in the experiment with U251 CNS and in the experiment on KM12 colon was above 100 µM in each case. Besides, the TGI in the experiment on SNB-19 CNS, in the experiment with TK-10 renal, with PC-3 prostate and in the experiment with SK-MEL-28 melanoma was above 100 µM throughout.
Consider `CCc1nc2c(c(N(C)C)c1C(=O)OC)CCc1ccccc1-2`, for which the TGI in the experiment with NCI-H460 lung is above 100 µM; with HOP-92 NSCLC, above 100 µM; in the experiment on HCT-116 colon, above 100 µM; in the experiment with MOLT-4 leukemia, 23 µM; in the experiment on U251 CNS, above 100 µM; in the experiment with KM12 colon, above 100 µM. Besides, the TGI was above 100 µM with SNB-19 CNS, above 100 µM in the experiment on TK-10 renal, 40 µM in the experiment with PC-3 prostate and above 100 µM in the experiment on SK-MEL-28 melanoma.
Consider `N#C/C(C(=O)NCc1ccccc1)=C(/N)N1CCCC1`, for which the TGI in the experiment on NCI-H460 lung, in the experiment on HOP-92 NSCLC, in the experiment with HCT-116 colon, in the experiment with MOLT-4 leukemia, in the experiment on U251 CNS and with KM12 colon was above 100 µM each time. Further, the TGI in the experiment with SNB-19 CNS, in the experiment on TK-10 renal, with PC-3 prostate and in the experiment on SK-MEL-28 melanoma was above 100 µM throughout.
For `CC1=NN2C(=N)/C(=C/c3ccc(F)cc3)C(=O)N=C2S1`, the TGI in the experiment with NCI-H460 lung, in the experiment on HOP-92 NSCLC, with HCT-116 colon, in the experiment on MOLT-4 leukemia, with U251 CNS and in the experiment with KM12 colon was above 100 µM throughout. Further, the TGI in the experiment with SNB-19 CNS, in the experiment with TK-10 renal, with PC-3 prostate and in the experiment with SK-MEL-28 melanoma was above 100 µM each time.
For the compound `O=c1c2c3c(sc2nc2n1N=C(c1ccc(Br)cc1)CS2)CCCC3`, the TGI in the experiment with NCI-H460 lung, with HOP-92 NSCLC, in the experiment with HCT-116 colon, with MOLT-4 leukemia, in the experiment on U251 CNS and in the experiment with KM12 colon was above 100 µM in each case. Also, the TGI with SNB-19 CNS, in the experiment on TK-10 renal, in the experiment with PC-3 prostate and in the experiment with SK-MEL-28 melanoma was above 100 µM throughout.
